According to patent publication US11971383B1, “Enhanced 3D porous architectured electroactive devices via impregnated porogens” (Iowa State University Research Foundation, Inc., priority 2018, dated 2024):

Molecular target: T1, Acetylcholinesterase (ACHE) (Electrophorus electricus, UniProt O42275)
T1 construct: purchased Sigma Aldrich
Assay: ACHE biosensor inhibition versus incubation time (decrease in amperometric oxidation current)
Assay type: biochemical
Conditions: 1 μM paraoxon, 5 mM ACTH, 400 mV
Protocol: Sodium chloride (NaCl) was purchased from Sigma-Aldrich, ground using mortar and pestle, and filtered into different sizes with 8 in wire cloth sieves. Acetylcholinesterase (ACHE) from Electrophorus electricus was purchased from Sigma Aldrich as lyophilized powder (200-1000 units per mg) and was used without any further purification. ACHE ink aliquots were made by dissolving the enzyme (2 mg) in 1 mL of 50% glycerol and 50% 1× phosphate-buffer solution (0.1 M PBS, pH 7.0), aliquoted into 25 μL, and stored in a −80° C. freezer until use. […]. All other chemicals and solvents were purchased from Sigma-Aldrich and were used without any other purification unless otherwise stated. Water was filtered through a B-Pure Water Purification system (resistivity, […]).
SIIML electrodes were functionalized with ACHE using 1-ethyl-3-(3-dimethylaminopropyl) carbodiimide and N-hydroxysuccinimide (EDC/NHS) chemistry, which facilitated the functionalization of carboxyl groups to the amines within the ACHE enzyme.^39 In summary, the CO2 laser annealed SIIML electrodes were dipped in a solution of EDC/NHS mixture (50 mM EDC, 50 mM NHS) and incubated for 30 min on a tilter mixer. The electrodes were then rinsed with 1×PBS, excess water was blown off but not completely dried as the surface remained still “wetted”, this allowed for easier pipetting onto the slightly hydrophobic graphene surface. […]

T1 sequence (O42275 24-633): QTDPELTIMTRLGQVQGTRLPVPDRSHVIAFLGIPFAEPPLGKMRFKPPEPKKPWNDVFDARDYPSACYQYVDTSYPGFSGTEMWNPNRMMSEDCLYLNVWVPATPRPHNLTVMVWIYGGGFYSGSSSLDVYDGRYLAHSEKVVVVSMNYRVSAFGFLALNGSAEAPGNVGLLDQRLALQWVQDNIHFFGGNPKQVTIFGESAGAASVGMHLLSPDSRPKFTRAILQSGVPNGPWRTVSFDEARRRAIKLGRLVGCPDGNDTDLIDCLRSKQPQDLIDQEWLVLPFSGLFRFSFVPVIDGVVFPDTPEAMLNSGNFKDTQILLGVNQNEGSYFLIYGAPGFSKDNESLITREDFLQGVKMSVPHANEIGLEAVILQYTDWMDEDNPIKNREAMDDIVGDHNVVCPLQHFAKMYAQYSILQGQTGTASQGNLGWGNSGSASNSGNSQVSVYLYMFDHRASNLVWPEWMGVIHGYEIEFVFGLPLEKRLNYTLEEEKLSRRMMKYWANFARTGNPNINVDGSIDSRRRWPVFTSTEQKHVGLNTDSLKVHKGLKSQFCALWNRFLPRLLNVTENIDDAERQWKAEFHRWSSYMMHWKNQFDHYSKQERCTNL

## CCOP(=O)(OCC)Oc1ccc([N+](=O)[O-])cc1 [paraoxon]
After 100 seconds incubation, large standard deviations
  inhibition of the sensor (percent of ACHE inhibited): roughly 50%
After 500 seconds incubation, low standard deviation
  inhibition of the sensor (percent of ACHE inhibited): about 90%
